For 22 compounds, inhibition and IC50 results are on record in patent US20200247800A1, “SUBSTITUTED BICYCLIC HETEROCYCLIC COMPOUNDS AS NADPH OXIDASE INHIBITORS” (Glenmark Pharmaceuticals S.A., priority 2017, published 2020).

The target in the test is T1, human NOX4 (Homo sapiens, UniProt Q9NPH5).
T1 construct: expressed in transfected cells; membrane fraction used
T1 sequence (Q9NPH5 1-578): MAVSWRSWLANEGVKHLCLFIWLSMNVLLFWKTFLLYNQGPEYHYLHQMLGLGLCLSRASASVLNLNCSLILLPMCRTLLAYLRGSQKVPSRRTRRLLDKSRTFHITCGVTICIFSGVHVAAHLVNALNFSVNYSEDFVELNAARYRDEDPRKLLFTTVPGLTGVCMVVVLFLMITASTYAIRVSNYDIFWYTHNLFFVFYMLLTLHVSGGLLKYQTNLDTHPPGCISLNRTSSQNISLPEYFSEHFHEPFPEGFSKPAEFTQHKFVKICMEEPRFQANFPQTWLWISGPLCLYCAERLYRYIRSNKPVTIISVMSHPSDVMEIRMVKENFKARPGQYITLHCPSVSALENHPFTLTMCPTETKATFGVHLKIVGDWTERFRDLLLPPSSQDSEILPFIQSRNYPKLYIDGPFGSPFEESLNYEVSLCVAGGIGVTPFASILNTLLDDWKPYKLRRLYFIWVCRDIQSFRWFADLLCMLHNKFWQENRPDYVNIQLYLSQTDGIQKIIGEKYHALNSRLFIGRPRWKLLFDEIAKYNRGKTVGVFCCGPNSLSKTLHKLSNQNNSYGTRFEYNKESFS
T1 sequence (P13498 1-195 partner): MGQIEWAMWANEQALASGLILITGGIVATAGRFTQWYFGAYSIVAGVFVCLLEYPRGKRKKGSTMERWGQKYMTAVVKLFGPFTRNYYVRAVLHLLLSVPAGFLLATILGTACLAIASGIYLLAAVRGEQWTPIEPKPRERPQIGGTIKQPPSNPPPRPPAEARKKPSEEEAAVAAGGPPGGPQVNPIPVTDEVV
The experiment in a line: Cell free membrane based in vitro NOX4 assay: H2O2 production by membranes expressing human NOX4, measured with Amplex Red. The class given is biochemical. As to conditions: for inhibition at 1 µM: 1.0 μM compound, read-out: Percentage inhibition at 1.0 μM; for inhibition at 10 µM: 10.0 μM compound, read-out: Percentage inhibition at 10.0 μM; for IC50: class symbols. On the procedure: The inhibition of NOX4 activity was measured as inhibition of formation of reactive oxygen species (ROS) from oxygen in cell free assays. […] A cell free membrane based in vitro assay was developed by preparing membranes from cells stably overexpressing human NOX4. hNOX4/HEK stable cell line was generated in-house for this purpose. Membranes from stably transfected cells overexpressing human NOX4 were prepared by homogenizing the cells in buffer (20 mM HEPES, 1 mM EGTA, 0.5 mM DTT, 0.5% protease inhibitor cocktail, 1 mM PMSF, pH 7.6), followed by centrifugation at 160000 g for 30 min. Membrane fraction (pellet) was resuspended in storage buffer (homogenization buffer with 10% glycerol and 100 mM NaCl) and stored at −80° C. Protein concentration was determined by Bradford reagent. H202 production by membranes expressing human NOX4 was measured using Amplex Red (Invitrogen) by following a slightly modified version of the manufacturer's instruction manual. Briefly, membranes were incubated in assay buffer (25 mM HEPES, 0.12 M NaCl, 3 mM KCl, 1 mM MgCl2, pH 7.4) with Horse Radish Peroxidase (HRP) and Amplex Red. Reaction was started by addition of […] to the membrane mix. Antagonism of NOX4 inhibitors was measured by incubating the membrane with increasing concentrations of the inhibitors for 20 min on a plate shaker prior to addition of NADPH. H2O2 levels were measured for 10 min in a BMG Fluostar microplate reader with excitation and emission wavelengths of 544 nm and 590 nm respectively. Concentration response curves were plotted as a % of maximal response obtained in the absence of the inhibitor. IC50 value was calculated from concentration response curve by nonlinear regression analysis using GraphPad PRISM software.

On to `Cc1nn(C)c2[nH]c(-c3ccccc3Cl)c(O)c(=O)c12` [Example 1, 6-(2-Chlorophenyl)-5-hydroxy-1,3-dimethyl-1,7-dihydro-4H-pyrazolo[3,4-b]pyridin-4-one], for which the inhibition (in general, the percentage by which the read-out fell short of the control) at 1 µM worked out at 94.1%; the inhibition at 10 µM is 89.7%; the IC50 (in general, the midpoint of a concentration-inhibition curve) is less than 50 nM.
As for `Cc1nn(CCN2CCOCC2)c2[nH]c(-c3ccccc3Cl)c(O)c(=O)c12` [Example 2, 6-(2-Chlorophenyl)-5-hydroxy-3-methyl-1-(2-morpholinoethyl)-1H-pyrazolo[3,4-b]pyridin-4(7H)-one], the inhibition at 1 µM came to 83.5%, the inhibition at 10 µM came out at 81.5% and the IC50 fell in the range of 100 to 150 nM.
As to `Cn1ncc2c(=O)c(O)c(-c3ccccc3Cl)[nH]c21` [Example 3, 6-(2-Chlorophenyl)-5-hydroxy-1-methyl-1,7-dihydro-4H-pyrazolo[3,4-b]pyridin-4-one], the inhibition at 1 µM stood at 93.7%, the inhibition at 10 µM was 100% and the IC50 lay within 100 to 150 nM.
Taken in the same sequence, the figures for `Cn1ncc2c(=O)c(O)c(-c3cccc(Cl)c3)[nH]c21` [Example 4, 6-(3-Chlorophenyl)-5-hydroxy-1-methyl-1,7-dihydro-4H-pyrazolo[3,4-b]pyridin-4-one] were 94.5%, 98.5% and greater than 150 nM.
On to `Cn1ncc2c(=O)c(O)c(-c3ccc(Cl)cc3Cl)[nH]c21` [Example 5, 6-(2,4-Dichlorophenyl)-5-hydroxy-1-methyl-1,7-dihydro-4H-pyrazolo[3,4-b]pyridin-4-one], for which the inhibition at 1 µM was determined as 74%, the inhibition at 10 µM came to 84.2% and the IC50 is greater than 150 nM.
As for `Cn1ncc2c(=O)c(O)c(-c3ccc(F)c(C(F)(F)F)c3)[nH]c21` [Example 6, 6-[4-Fluoro-3-(trifluoromethyl)phenyl]-5-hydroxy-1-methyl-1,7-dihydro-4H-pyrazolo[3,4-b]pyridin-4-one], the inhibition at 1 µM amounted to 96.3%, the inhibition at 10 µM was determined as 94.3% and the IC50 was in the range of 100 to 150 nM.
In the case of `Cn1ncc2c(=O)c(O)c(-c3c(F)cccc3Cl)[nH]c21` [Example 7, 6-(2-Chloro-6-fluorophenyl)-5-hydroxy-1-methyl-1,7-dihydro-4H-pyrazolo[3,4-b]pyridin-4-one], the inhibition at 1 µM was found to be 100%, the inhibition at 10 µM is 100% and the IC50 is 50 to 100 nM.
As to `O=c1c(O)c(-c2ccccc2Cl)[nH]c2c1cnn2CC(F)(F)F` [Example 8, 6-(2-Chlorophenyl)-5-hydroxy-1-(2,2,2-trifluoroethyl)-1,7-dihydro-4H-pyrazolo[3,4-b]pyridin-4-one], the inhibition at 1 µM was determined as 87.5%, the inhibition at 10 µM worked out at 100% and the IC50 was in the range of 50 to 100 nM.
For `O=c1c(O)c(-c2c(F)cccc2F)[nH]c2c1cnn2-c1ccc(F)cc1` [Example 9, 6-(2,6-Difluorophenyl)-1-(4-fluorophenyl)-5-hydroxy-1,7-dihydro-4H-pyrazolo[3,4-b]pyridin-4-one], the inhibition at 1 µM turned out to be 81.7%, the inhibition at 10 µM stood at 97.4% and the IC50 was greater than 150 nM.
Consider `O=c1c(O)c(-c2ccccc2Cl)[nH]c2c1cnn2-c1ccc(F)cc1` [Example 10, 6-(2-Chlorophenyl)-1-(4-fluorophenyl)-5-hydroxy-1,7-dihydro-4H-pyrazolo[3,4-b]pyridin-4-one], for which the inhibition at 1 µM came to 100%, the inhibition at 10 µM is 100% and the IC50 was less than 50 nM.
Consider `Cc1nn(C)c2[nH]c(-c3ccc(Cl)cc3Cl)c(O)c(=O)c12` [Example 11, 6-(2,4-Dichlorophenyl)-5-hydroxy-1,3-dimethyl-1,7-dihydro-4H-pyrazolo[3,4-b]pyridin-4-one], for which the inhibition at 1 µM was found to be 76.6%, the inhibition at 10 µM came to 76.5% and the IC50 lay in the range of 100 to 150 nM.
As to `Cc1nn(C)c2[nH]c(-c3ccc(F)cc3Cl)c(O)c(=O)c12` [Example 12, 6-(2-Chloro-4-fluorophenyl)-5-hydroxy-1,3-dimethyl-1,7-dihydro-4H-pyrazolo[3,4-b]pyridin-4-one], the inhibition at 1 µM was 95%, the inhibition at 10 µM came out at 86% and the IC50 was in the range of 50 to 100 nM.
As to `Cc1nn(C)c2[nH]c(-c3c(F)cccc3F)c(O)c(=O)c12` [Example 13, 6-(2,6-Difluorophenyl)-5-hydroxy-1,3-dimethyl-1,7-dihydro-4H-pyrazolo[3,4-b]pyridin-4-one], the inhibition at 1 µM came out at 99.6%, the inhibition at 10 µM was found to be 98.7% and the IC50 is less than 50 nM.
As to `Cc1nn(C)c2[nH]c(-c3ccc(F)cc3F)c(O)c(=O)c12` [Example 14, 6-(2,4-Difluorophenyl)-5-hydroxy-1,3-dimethyl-1,7-dihydro-4H-pyrazolo[3,4-b]pyridin-4-one], the inhibition at 1 µM came out at 100%, the inhibition at 10 µM was determined as 82.5% and the IC50 is 50 to 100 nM.
As to `Cc1ccc(-c2[nH]c3c(c(C)nn3C)c(=O)c2O)cc1C` [Example 15, 6-(3,4-Dimethylphenyl)-5-hydroxy-1,3-dimethyl-1,7-dihydro-4H-pyrazolo[3,4-b]pyridin-4-one], the inhibition at 1 µM stood at 50.1%.
Consider `Cc1nn(C)c2[nH]c(-c3ccc(OC(F)(F)F)c(F)c3)c(O)c(=O)c12` [Example 16, 6-[3-Fluoro-4-(trifluoromethoxy)phenyl]-5-hydroxy-1,3-dimethyl-1,7-dihydro-4H-pyrazolo[3,4-b]pyridin-4-one], for which the inhibition at 1 µM was determined as 99.7% and the IC50 is greater than 150 nM.
For the compound `Cc1nn(C)c2[nH]c(-c3ccc(F)c(F)c3)c(O)c(=O)c12` [Example 17, 6-(3,4-Difluorophenyl)-5-hydroxy-1,3-dimethyl-1,7-dihydro-4H-pyrazolo[3,4-b]pyridin-4-one], the inhibition at 1 µM is 63.9%.
As for `COc1ccc(-c2[nH]c3c(c(C)nn3C)c(=O)c2O)c(Cl)c1` [Example 18, 6-(2-Chloro-4-methoxyphenyl)-5-hydroxy-1,3-dimethyl-1,7-dihydro-4H-pyrazolo[3,4-b]pyridin-4-one], the inhibition at 1 µM turned out to be 78.6%, the inhibition at 10 µM came out at 78.4% and the IC50 lay within 100 to 150 nM.
Consider `COc1ccc(-c2[nH]c3c(c(C)nn3C)c(=O)c2O)c(F)c1` [Example 19, 6-(2-Fluoro-4-methoxyphenyl)-5-hydroxy-1,3-dimethyl-1,7-dihydro-4H-pyrazolo[3,4-b]pyridin-4-one], for which the inhibition at 1 µM was 95.3%, the inhibition at 10 µM turned out to be 75.2% and the IC50 was in the range of 50 to 100 nM.
Taken in the same sequence, the figures for `Cc1nn(C)c2[nH]c(-c3cc(Cl)ccc3Cl)c(O)c(=O)c12` [Example 20, 6-(2,5-Dichlorophenyl)-5-hydroxy-1,3-dimethyl-1,7-dihydro-4H-pyrazolo[3,4-b]pyridin-4-one] were 95.9%, 96.1% and less than 50 nM.
For the compound `Cc1nn(C)c2[nH]c(-c3ccc(C(F)(F)F)cc3F)c(O)c(=O)c12` [Example 21, 6-[2-Fluoro-4-(trifluoromethyl)phenyl]-5-hydroxy-1,3-dimethyl-1,7-dihydro-4H-pyrazolo[3,4-b]pyridin-4-one], the inhibition at 1 µM is 100%, the inhibition at 10 µM was found to be 100% and the IC50 was greater than 150 nM.
For the compound `Cc1nn(C)c2[nH]c(-c3ccc(C(F)(F)F)c(F)c3)c(O)c(=O)c12` [Example 22, 6-[3-Fluoro-4-(trifluoromethyl)phenyl]-5-hydroxy-1,3-dimethyl-1,7-dihydro-4H-pyrazolo[3,4-b]pyridin-4-one], the inhibition at 1 µM was 100%, the inhibition at 10 µM came to 80.9% and the IC50 is greater than 150 nM.
